Results from patent US20110245091A1, “REACTION PROGRESS ASSAY FOR SCREENING BIOLOGICAL ACTIVITY OF ENZYMES” (priority 2010, published 2011).

Target: T1, HIV-I reverse transcriptase (Human immunodeficiency virus type 1 group M subtype B, UniProt P04585)
T1 construct: HIV-I RNA-dependent DNA polymerase (reverse transcriptase); purchased Worthington LS05006
Assay: Reaction progress luminescence assay of cDNA synthesis by HIV-I reverse transcriptase (luciferase detection of dATP)
Type: biochemical
Protocol: The reaction was set by adding: 16 µL of RNAse-free water; 2 µL of 10× reaction buffer (400 mM Tris-HCl, 60 mM MgCl2, 100 mM Dithiothreitol, 20 mM spermidine, pH 7.9 @ 25° C.); 2 µL of template, polyuridylic acid at 1 µg/µL (Midland Certified Reagent Company, Cat. No. P-3004); 2 µL of primer poly(A)18 at 0.5 µg/µL (Polydeoxyadenylate, 18 base long purchased from Integrated DNA technologies); 20 µM of dATP; 3 U of HIV-I (Worthington, Cat. No. LS05006); 3 µL of ATP detection solution prepared by diluting luciferase (EC 1.13.12.7) at 3 µg/mL in 0.1M Tris-acetate pH 7.7, 2 mM EDTA, 10 mM magnesium acetate, 0.1% BSA, 1 mM dithiothreitol, 0.4 mg/mL PVP, and 0.4 mM D-luciferin. A 5 µL of reaction solution has been added to a well of 384-well plate and the luminescence intensity vs. time was recorded on Orion II microplate luminometer at 25° C. (Berthold detection Systems (Pforzheim, Germany)). A first derivative, ∂l(t)l∂t, for the luminescence intensity has been calculated. The derivative was calculated by selecting a group of three or more consecutive measurements of the luminescence intensity and calculating by a least square method the “instant” slope of the luminescent intensity which said slope represents the first derivative of the luminescence at the time when the respective measurements were made. […]

C[C@H](Cn1cnc2c(N)ncnc21)OCP(=O)(O)O [MT-4S]
mechanism of inhibition (crossing of trend lines) (MT-4S at 1.2 nM and 3.7 nM): non-competitive | Ki (inhibitor at 0, 1.2 and 3.7 nM, 20 μM dATP, 25° C., read-out: inhibition constant Ki): 0.9 ± 0.15 nM
